# Biological target: T1, human PAH with the R408W mutation (Homo sapiens, UniProt P00439, R408W)
# T1 construct: expressed in transfected cells
# T1 sequence (P00439 1-452 R408W): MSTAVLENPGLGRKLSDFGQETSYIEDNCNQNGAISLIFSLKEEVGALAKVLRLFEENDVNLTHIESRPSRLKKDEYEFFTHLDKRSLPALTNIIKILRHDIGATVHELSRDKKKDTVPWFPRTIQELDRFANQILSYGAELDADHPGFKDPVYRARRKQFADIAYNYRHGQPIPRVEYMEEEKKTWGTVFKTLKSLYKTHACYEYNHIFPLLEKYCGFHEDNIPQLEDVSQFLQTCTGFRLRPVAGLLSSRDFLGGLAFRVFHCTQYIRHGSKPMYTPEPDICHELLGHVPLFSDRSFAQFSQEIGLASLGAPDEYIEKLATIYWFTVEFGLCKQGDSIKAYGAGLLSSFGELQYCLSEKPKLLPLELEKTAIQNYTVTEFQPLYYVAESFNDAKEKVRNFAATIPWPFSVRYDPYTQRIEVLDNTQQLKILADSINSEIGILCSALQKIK
# Assay: Cell Based Phenylalanine Flux Assay;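 further: after compound treatment, cells received sepiapterin plus isotope-labelled Phenylalanine for 4 hours, then labelled Tyrosine in the medium was quantified, 10-point 2-fold dilution series run in duplicate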
# Settings: A375 cells expressing human R408W PAH; 24 hrs compound incubation; 13C-Tyrosine by LC-MS; average where tested multiple times; read-out: AC50
row,AC50,Structure (SMILES)
1,< 500 nM,"CC(C)(O)c1nc(C(F)F)c(C(=O)N2CCc3[nH]cnc3[C@H]2c2cc3ccc(F)cn3n2)o1 [Example 1070, (S)-(4-(difluoromethyl)-2-(2-hydroxypropan-2-yl)oxazol-5-yl)(4-(6-fluoropyrazolo[1,5-a]pyridin-2-yl)-6,7-dihydro-1H-imidazo[4,5-c]pyridin-5(4H)-yl)methanone]"
2,> 5000 nM,"CC(C)(O)c1nc(C(F)F)c(C(=O)N2CCc3[nH]cnc3[C@@H]2c2cc3ccc(F)cn3n2)o1 [Example 1071, (R)-(4-(difluoromethyl)-2-(2-hydroxypropan-2-yl)oxazol-5-yl)(4-(6-fluoropyrazolo[1,5-a]pyridin-2-yl)-6,7-dihydro-1H-imidazo[4,5-c]pyridin-5(4H)-yl)methanone]"
3,500 to 1000 nM,"Cn1nc(C2CC2)nc1C(=O)N1CCc2[nH]cnc2[C@H]1c1cc2c(Cl)cccn2n1 [Example 1072, (S)-(4-(4-chloropyrazolo[1,5-a]pyridin-2-yl)-6,7-dihydro-1H-imidazo[4,5-c]pyridin-5(4H)-yl)(3-cyclopropyl-1-methyl-1H-1,2,4-triazol-5-yl)methanone]"
4,< 500 nM,"Cc1cccn2nc([C@@H]3c4nc[nH]c4CCN3C(=O)c3nc(Cl)nn3C)cc12 [Example 1076, (S)-(3-chloro-1-methyl-1H-1,2,4-triazol-5-yl)(4-(4-methylpyrazolo[1,5-a]pyridin-2-yl)-6,7-dihydro-1H-imidazo[4,5-c]pyridin-5(4H)-yl)methanone]"
5,< 500 nM,"Cn1nc(Cl)nc1C(=O)N1CCc2[nH]cnc2[C@H]1c1cc2c(C(F)(F)F)cccn2n1 [Example 1078, (S)-(3-chloro-1-methyl-1H-1,2,4-triazol-5-yl)(4-(4-(trifluoromethyl)pyrazolo[1,5-a]pyridin-2-yl)-6,7-dihydro-1H-imidazo[4,5-c]pyridin-5(4H)-yl)methanone]"
6,< 500 nM,"Cn1nc(C2CC2)nc1C(=O)N1CCc2[nH]cnc2[C@H]1c1cc2c(C(F)(F)F)cccn2n1 [Example 1081, (S)-(3-cyclopropyl-1-methyl-1H-1,2,4-triazol-5-yl)(4-(4-(trifluoromethyl)pyrazolo[1,5-a]pyridin-2-yl)-6,7-dihydro-1H-imidazo[4,5-c]pyridin-5(4H)-yl)methanone]"
7,< 500 nM,"Cc1nc(C(=O)N2CCc3[nH]cnc3[C@H]2c2cc3c(C(F)(F)F)cccn3n2)n(C)n1 [Example 1082, (S)-(1,3-dimethyl-1H-1,2,4-triazol-5-yl)(4-(4-(trifluoromethyl)pyrazolo[1,5-a]pyridin-2-yl)-6,7-dihydro-1H-imidazo[4,5-c]pyridin-5(4H)-yl)methanone]"
8,< 500 nM,"CC(C)(O)c1nc(C(F)F)c(C(=O)N2CCc3[nH]cnc3[C@H]2c2cc3cc(F)ccn3n2)o1 [Example 1084, (S)-(4-(difluoromethyl)-2-(2-hydroxypropan-2-yl)oxazol-5-yl)(4-(5-fluoropyrazolo[1,5-a]pyridin-2-yl)-6,7-dihydro-1H-imidazo[4,5-c]pyridin-5(4H)-yl)methanone]"
9,1000 to 5000 nM,"CC(C)(O)c1nc(C(F)F)c(C(=O)N2CCc3[nH]cnc3[C@@H]2c2cc3cc(F)ccn3n2)o1 [Example 1085, (R)-(4-(difluoromethyl)-2-(2-hydroxypropan-2-yl)oxazol-5-yl)(4-(5-fluoropyrazolo[1,5-a]pyridin-2-yl)-6,7-dihydro-1H-imidazo[4,5-c]pyridin-5(4H)-yl)methanone]"
10,< 500 nM,"Cc1cccc2cc([C@@H]3c4nc[nH]c4CCN3C(=O)c3nc(Cl)nn3C)nn12 [Example 1086, (S)-(3-chloro-1-methyl-1H-1,2,4-triazol-5-yl)(4-(7-methylpyrazolo[1,5-a]pyridin-2-yl)-6,7-dihydro-1H-imidazo[4,5-c]pyridin-5(4H)-yl)methanone]"
11,500 to 1000 nM,"O=C(c1ccnn1C(F)F)N1CCc2[nH]cnc2[C@H]1c1cc2ccc(F)cn2n1 [Example 1088, (S)-(1-(difluoromethyl)-1H-pyrazol-5-yl)(4-(6-fluoropyrazolo[1,5-a]pyridin-2-yl)-6,7-dihydro-1H-imidazo[4,5-c]pyridin-5(4H)-yl)methanone]"
12,> 5000 nM,"O=C(c1ccnn1C(F)F)N1CCc2[nH]cnc2[C@@H]1c1cc2ccc(F)cn2n1 [Example 1089, (R)-(1-(difluoromethyl)-1H-pyrazol-5-yl)(4-(6-fluoropyrazolo[1,5-a]pyridin-2-yl)-6,7-dihydro-1H-imidazo[4,5-c]pyridin-5(4H)-yl)methanone]"
13,500 to 1000 nM,"O=C(c1nnc(-c2ccccn2)o1)N1CCc2[nH]cnc2[C@H]1c1cc2ccc(F)cn2n1 [Example 1090, (S)-(4-(6-fluoropyrazolo[1,5-a]pyridin-2-yl)-6,7-dihydro-1H-imidazo[4,5-c]pyridin-5(4H)-yl)(5-(pyridin-2-yl)-1,3,4-oxadiazol-2-yl)methanone]"
14,> 5000 nM,"O=C(c1nnc(-c2ccccn2)o1)N1CCc2[nH]cnc2[C@@H]1c1cc2ccc(F)cn2n1 [Example 1091, (R)-(4-(6-fluoropyrazolo[1,5-a]pyridin-2-yl)-6,7-dihydro-1H-imidazo[4,5-c]pyridin-5(4H)-yl)(5-(pyridin-2-yl)-1,3,4-oxadiazol-2-yl)methanone]"
15,500 to 1000 nM,"O=C(c1ccnn1C(F)F)N1CCc2[nH]cnc2[C@H]1c1cc2cc(F)ccn2n1 [Example 1092, (S)-(1-(difluoromethyl)-1H-pyrazol-5-yl)(4-(5-fluoropyrazolo[1,5-a]pyridin-2-yl)-6,7-dihydro-1H-imidazo[4,5-c]pyridin-5(4H)-yl)methanone]"
16,1000 to 5000 nM,"O=C(c1ccnn1C(F)F)N1CCc2[nH]cnc2[C@@H]1c1cc2cc(F)ccn2n1 [Example 1093, (R)-(1-(difluoromethyl)-1H-pyrazol-5-yl)(4-(5-fluoropyrazolo[1,5-a]pyridin-2-yl)-6,7-dihydro-1H-imidazo[4,5-c]pyridin-5(4H)-yl)methanone]"
17,< 500 nM,"O=C(c1nnc(C2CC2)o1)N1CCc2[nH]cnc2[C@H]1c1cc2c(Cl)cccn2n1 [Example 1094, (S)-(4-(4-chloropyrazolo[1,5-a]pyridin-2-yl)-6,7-dihydro-1H-imidazo[4,5-c]pyridin-5(4H)-yl)(5-cyclopropyl-1,3,4-oxadiazol-2-yl)methanone]"
18,> 5000 nM,"O=C(c1nnc(C2CC2)o1)N1CCc2[nH]cnc2[C@@H]1c1cc2c(Cl)cccn2n1 [Example 1095, (R)-(4-(4-chloropyrazolo[1,5-a]pyridin-2-yl)-6,7-dihydro-1H-imidazo[4,5-c]pyridin-5(4H)-yl)(5-cyclopropyl-1,3,4-oxadiazol-2-yl)methanone]"
19,> 5000 nM,"COc1ccc(-c2nnc(C(=O)N3CCc4[nH]cnc4[C@@H]3c3cc4cccc(Cl)n4n3)o2)nc1 [Example 1096, (R)-(4-(7-chloropyrazolo[1,5-a]pyridin-2-yl)-6,7-dihydro-1H-imidazo[4,5-c]pyridin-5(4H)-yl)(5-(5-methoxypyridin-2-yl)-1,3,4-oxadiazol-2-yl)methanone]"
20,500 to 1000 nM,"COc1ccc(-c2nnc(C(=O)N3CCc4[nH]cnc4[C@H]3c3cc4cccc(Cl)n4n3)o2)nc1 [Example 1097, (S)-(4-(7-chloropyrazolo[1,5-a]pyridin-2-yl)-6,7-dihydro-1H-imidazo[4,5-c]pyridin-5(4H)-yl)(5-(5-methoxypyridin-2-yl)-1,3,4-oxadiazol-2-yl)methanone]"

# Source: patent US20230365592A1 (Agios Pharmaceuticals, Inc., priority 2022, published 2023)
